Data from patent publication US6083987A, “Phenylenediamine derivative, radical scavenger, brain-infarction depressant, and brain-edema depressant” (Shiseido Co., Ltd., priority 1998, dated 2000).

Tests used:
rat brain homogenate = test: Lipid Peroxidation Inhibition Test; assay type: biochemical, rat (SD-line male); details: 1 μM sample compound, pH 7.4, 1 hour at 37° C., TBA method
From the text: Lipid Peroxidation Inhibition Test
In an automatic oxidation system using a rat brain homogenate, whether a sample compound having a radical-eliminating effect can actually have a lipid peroxidation inhibitory activity or not is investigated and its effectiveness is comparatively studied.
With reference to method of Shimamoto et. al. (Clinical Study of Free Radical, vol. 1, pp. 91-95, 1987), the following method was used. An SD-line male rat (7-week-old) was bled to death with a physiological saline perfusion under pentobarbital anesthesia. Then, its hemisphaerium cerebri was taken out and, while being cooled with ice, a 19-fold amount of 20 mM phosphoric acid buffer (pH 7.4) was added thereto. The resulting mixture was homogenized. To this mixture, 1 μM of the sample compound was added. After the resulting mixture was incubated for 1 hour at 37° C., the amount of generated lipid peroxide was determined by TBA method. Namely, to 0.2 ml of the homogenate, 0.2 ml of 8.1% SDS, 1.5 ml of 20% acetic acid buffer (pH 3.5), and 1.5 ml of 0.8% TBA reagent were added. The resulting mixture was incubated for 1 hour at 95° C. and then rapidly cooled with ice. Subsequently, 1 ml of distilled water and 5 ml of n-butanol/pyridine mixed solution (15:1, v/v) were added thereto and the mixture was stirred. After the mixture was centrifuged, the butanol layer was collected therefrom and its absorbance (a) at 535 nm was measured as compared with a blank. Also, as a reference liquid, a 10 μM solution of 1,1,3,3-tetraethoxypropane (TEP) was added in place of the brain homogenate and its absorbance (A) was measured in a similar manner. In the blank, a phosphoric acid buffer was used in place of the brain homogenate. The peroxide concentration was calculated by the following equation and defined as the brain lipid peroxide amount: […]
peroxide concentration (nmol/g wet weight)=a/A×100
The sample compound was used as being dissolved in dimethylsulfoxide (DMSO). While the final concentration of DMSO was 2%, no influence upon the present system was observed.
The lipid peroxidation inhibitory rate of the sample compound at the concentration of 1 μM was calculated from the amount of increase in lipid peroxide in solvent-added group (M) and that in sample compound added group (m): […]
lipid peroxidation inhibitory rate (%)={1-(m/M)}×100

[1] = Radical Eliminating Effect Test (DPPH); assay type: biochemical; details: 10 μM sample compound, 0.1 mM DPPH, pH 5.5, 30 minutes, room temperature
Description: Radical Eliminating Effect Test (DPPH)
Radical-eliminating ability of a sample drug is studied in terms of its reaction amount and reactivity with respect to α, α-diphenyl-β-picrylhydrazyl (DPPH) which is a stable radical.
Method of Uchiyama et al. (Japanese Journal of Pharmacology, vol. 88, pp. 678-683, 1968) was used. Namely, to a solution containing 20 mM acetic acid buffer (pH 5.5), 60% ethanol, and 10 μM of a sample compound, DPPH was added so as to yield a concentration of 0.1 mM. The resulting mixture was stirred and then its change in absorbance (ABS) at 517 nm was measured for 30 minutes at room temperature. Here, the sample compound was used as being dissolved in dimethylsulfoxide (DMSO). While the final concentration of DMSO was 10%, no influence upon the present system was observed.
The DPPH reducing ratio of the sample compound at the concentration of 10 μM was calculated by the following equation:
reducing ratio (%)={1-(ABS after 30 minutes/initial ABS)}×100

[2] = test system: middle cerebral artery (MCA) infarction model; test: Brain Infarction Inhibition Test (MCA infarction model); assay type: in vivo, rat (Crj:Fischer-344 line male); details: for Brain infarction inhibitory ratio: dose was 100 mg/kg, 2 hours ischemia, 2 hours reperfusion, i.p. 20 minutes before or i.v. simultaneously with reperfusion, * p < 0.05
Description: Brain Infarction Inhibition Test i) Meaning The brain infarction inhibitory activity in vivo is studied. According to this test, it can be judged whether the peripherally administered sample compound can pass through the blood-brain barrier or not. ii) Method For the experiment, 9 to 10-week-old Crj:Fischer-344 line male rats were used. Each of all the soluble sample compounds was dissolved in a physiological saline and then administered intravenously or intraperitoneally. Each of insoluble ones was suspended in a physiological saline containing 0.1% Tween 80 and administered intraperitoneally. Also, those dissolved in a physiological saline containing 0.5% Tween 80 were used for intravenous administration. The intraperitoneal administration was effected 20 minutes before reperfusion, whereas the intravenous administration was effected simultaneously with reperfusion. As a control, only the base was administered. The surgical operation was effected in a manner similar to method of Koizumi et al. (Japanese Journal of Stroke, vol. 8, pp. 1-8, 1986) so as to form a middle cerebral artery (MCA) infarction model. Namely, the rat was subjected to inhalation anesthesia with 4% halothane and then, while the anesthesia was maintained with 1% halothane, fixed on face-up position. The neck portion was subjected to median incision such that the common carotid artery and outer carotid artery around the right carotid artery branching portion were separated from their surrounding connecting tissues and then ligated with a silk string. Further, the inner carotid artery starting portion was surrounded by a silk string so as to be ready for ligation and fixation which would be effected after insertion of an embolus. Then, the common carotid artery was incised and, from there, an embolus having a length of about 16 mm, in which a 4-0 surgical nylon string had been coated with a dental impression material, was inserted toward the inner carotid artery and its end near the nylon string was ligated and fixed to the inner carotid artery with the above mentioned silk string. Also, during the surgical operation, the body temperature was maintained by a small animal body temperature control apparatus in order to prevent it from lowering upon the whole anesthesia processes. According to the foregoing operation, brain ischemia was effected for 2 hours and then the embolus was pulled out so as to effect reperfusion. The brain was taken out two hours after the reperfusion and then 4 pieces of crown-like separated strips were prepared by 2-mm intervals from the lambda level toward the downstream. These strips were immersed in 2% triphenyltetrazorium chloride (TTC) solution and incubated at 37° C., for 10 minutes. Thus dyed brain strips were immersed in a phosphate-buffered 8% formalin solution for 1 to 2 days and then photographed under a stereo-microscope ([…]). Thereafter, for each crown-like strip, the area of infarction region was measured by Planimeter ([…]) Judgment Standard The effects of the sample compound were represented by its individual inhibitory rate (%) which used the total area of the infarction regions, which had not been dyed with TTC in the 4 strips. The significance test was effected by student t-test. individual inhibitory rate(%)={1-(value in sample group/value in control group)}×100

[3] = test system: MCA infarction reperfusion model; test: Brain Edema Inhibition Test (MCA infarction reperfusion model); assay type: in vivo, rat (Fischer); details: dose was 100 mg/kg; i.p. 20 minutes before reperfusion; two-hour ischemia and two-hour reperfusion; brain moisture content
From the text: Brain Edema Inhibition Test
The brain edema inhibitory activity in vivo is confirmed. According to this test, it can be judged whether the peripherally administered sample compound can pass through the blood-brain barrier or not.
By using a 7 to 9-week-old Fischer rat (Charles River Japan Inc.), an MCA infarction reperfusion model was formed according to method of Koizumi et al. (Japanese Journal of Stroke, vol. 8, pp. 1-8, 1986). Namely, the rat was fixed face-up position under anesthesia with 2% halothane and then its neck portion was subjected to median incision so as to separate the right common carotid artery therefrom to the carotid artery branching portion while carefully keeping the vagus nerve. The outer carotid artery and inner carotid artery around the carotid artery branching portion were separated from their surrounding connecting tissues. Then, the common carotid artery and outer carotid artery were ligated with a silk string. Further, the inner carotid artery starting portion was surrounded by a silk string so as to be ready for ligation and fixation which would be effected after insertion of an embolus string. Then, the common carotid artery was incised and, from there, an embolus string was inserted toward the inner carotid artery by about 15 to 16 mm and then ligated and fixed to the inner carotid artery with the above mentioned silk string. As a result of the foregoing operation, the tip of the embolus string proceeded beyond the MCA branching portion so as to enter the anterior cerebral artery by about 1 to 2 mm and formed infarction at the MCA inlet by the body portion of the embolus string. After the embolus string blocking the MCA starting portion was left for a predetermined time, it was pulled out under halothane anesthesia to effect reperfusion. Here, in this model, since the right common carotid artery has been ligated, the blood flow is supposed to be restarted from the left inner carotid artery and vertebral-basilar by way of the anterior and posterior communicating arteries. This experiment effected two-hour ischemia and two-hour reperfusion.
Here, the embolus string was prepared in the following manner. Namely, a tip of a 4-0 surgical nylon string having a total length of 16 mm was held over an alcohol lamp so as to form a ball with a diameter of 0.2 to 0.3 mm and then a length of about 5 mm on the nearer side therefrom was coated with a dental impression material with reference to the size of the ball, thereby forming the embolus string.
The brain moisture content was measured by wet and dry weight method. […] Further, after being dried at 110° C. for 24 hours, their weight was measured again to yield dry weight. From thus obtained wet weight and dry weight, the brain moisture content was determined by the following equation: […]

Compound	Lipid peroxidation inhibitory ratio (rat brain homogenate)	DPPH reducing ratio [1]	Brain infarction inhibitory ratio [2]	Brain edema inhibitory ratio [3]	brain infarction inhibition activity, in words ([2]; rat, in vivo)
CC(C)Cc1cc(C(=O)Nc2ccc(N(C)C)cc2)ccc1O [Example 1]	40.1%	22.9%	53.0%	2.0%	
CC(C)Cc1ccc(O)c(C(=O)Nc2ccc(N(C)C)cc2)c1 [Example 2]	26.8%	17.7%	41.2%		
CC(C)Cc1cccc(C(=O)Nc2ccc(N(C)C)cc2)c1O [Example 3]	22.7%	22.5%			
CC(C)Cc1ccc(C(=O)Nc2ccc(N(C)C)cc2)cc1O [Example 4]	13.5%	16.4%			
CC(C)Cc1nccc(C(=O)Nc2ccc(N(C)C)cc2)c1O [Example 5]	29.5%	16.1%	19.0%	38.1%	
COc1ccc(COc2ccc(C(=O)Nc3ccc(N(C)C)cc3)cc2CC(C)C)cc1 [Example 6]	41.7%	25.1%		1.5%	
COc1ccc(C(=O)Nc2ccc(N(C)C)cc2)cc1CC(C)C [Example 7]	48.9%	20.7%			
CC(C)=CCC/C(C)=C/COc1ccc(C(=O)Nc2ccc(N(C)C)cc2)cc1CC(C)C [Example 8]	41.7%	21.2%			
CC(C)Cc1cc(C(=O)Nc2ccc(N(C)C)cc2)ccc1OCc1ccccc1 [Example 9]	28.1%	25.5%	39.9%	19.2%	
CC(C)Cc1cccc(C(=O)Nc2ccc(N(C)C)cc2)c1OCc1ccccc1 [Example 10]	28.2%	11.5%	18.7%		showed brain infarction inhibition tendency
CC(C)Cc1cc(S(=O)(=O)Nc2ccc(N(C)C)cc2)ccc1O [Example 12]	24.2%	61.8%	0.7%		
CC(C)Cc1cc(S(=O)(=O)Nc2ccc(N(C)C)cc2)ccc1OC(=O)c1ccccc1 [Example 13]	13.4%	58.9%			
CC(C)Cc1cc(C(=S)Nc2ccc(N(C)C)cc2)ccc1O [Example 14]	33.9%	18.3%			
CC(C)Cc1cc(CC(=O)Nc2ccc(N(C)C)cc2)ccc1OCc1ccccc1 [Example 15]	24.8%	12.8%	2.8%		
CC(C)Cc1cc(CC(=O)Nc2ccc(N(C)C)cc2)ccc1O [Example 16]	14.4%	21.0%			
CC(C)Cc1cccc(CC(=O)Nc2ccc(N(C)C)cc2)c1O [Example 17]	10.4%	18.7%			
